Experiment [1] relates to rats with a standardized laminectomy. Put plainly: laminectomy model on the rat, infliximab treatment: wound healing and scar formation. In kind it is in vivo. The settings on record: laminectomy of 4th lumbar vertebra, 4 mg/kg intraperitoneal. As for the experimental part: Four rats were anaesthetized with a standardized combination of pentobarbital and diazepam. The skin on the back was shaved. Through a midline incision, a laminectomy of the 4th lumbar vertebra was performed. The spinal muscles and the skin was sutured. Two rats received an intraperitoneal injection of 4 mg/kg of infliximab. Infliximab is a monoclonal antibody towards TNF with an inhibiting action with a duration of 1-2 months following single administration in the dosage used. The other two rats received an intraperitoneal injection of saline. After 2 weeks, the rats were reanaesthesized and wound healing and scar formation were evaluated by a person being unaware of the experimental protocol. Wound healing was considered normal in both groups. […] In the non-treated group, there was a somewhat more dense lump of connective tissue that was adherent to the spinal dura mater.

Another experiment deals with TNF. The settings on record: following single administration in the dosage used (4 mg/kg); cited from earlier work.

In the case of infliximab, in experiment [1] (after 2 weeks, saline group: adherent to the dura mater), the “adhesion of connective tissue to the spinal dura mater” value is “did not adhere to the spinal dura mater and was easy to remove”. In addition, the “scar formation: tissue filling the previous location of the lamina” value in experiment [1] (after 2 weeks, saline group: somewhat more dense lump of connective tissue) is “soft connective tissue”. Also, the wound healing result in experiment [1] (evaluated after 2 weeks, blinded) is listed as “normal”. Besides, in the experiment on TNF, the “duration of inhibiting action towards TNF” value is listed as 1-2 months.

These data come from patent US7994116B2, “Methods for reduction of adhesion formation using cytokine inhibitors” (Pharmasurgics In Sweden AB, priority 2002, dated 2011).
